Experimental data as given in EP4745137A1 (Gluetacs Therapeutics (Shanghai) Co., Ltd., priority 2023, dated 2025).

Key:
WEE1 = target: T1, WEE1 (Homo sapiens, UniProt P30291+Q96SW2); experiment: Western-blot assay of substrate protein degradation in hPBMCs, WEE1; format: cell-based; conditions: 24 hours of compound treatment, compounds tested at 50 nM and 500 nM (concentration of the table not stated)
T1 construct: endogenous in cells; host or cells: hPBMCs (Milecell Biotechnologies)

IKZF1 = target: T2, IKZF1 (Homo sapiens, UniProt Q13422+Q96SW2); experiment: Western-blot assay of substrate protein degradation in hPBMCs, IKZF1; format: cell-based; conditions: 24 hours of compound treatment, compounds tested at 50 nM and 500 nM (concentration of the table not stated)
T2 construct: endogenous in cells; host or cells: hPBMCs (Milecell Biotechnologies)

IKZF2 = target: T3, IKZF2 (Homo sapiens, UniProt Q96SW2+Q9UKS7); experiment: Western-blot assay of substrate protein degradation in hPBMCs, IKZF2; format: cell-based; conditions: 24 hours of compound treatment, compounds tested at 50 nM and 500 nM (concentration of the table not stated)
T3 construct: endogenous in cells; host or cells: hPBMCs (Milecell Biotechnologies)

IKZF3 = target: T4, IKZF3 (Homo sapiens, UniProt Q96SW2+Q9UKT9); experiment: Western-blot assay of substrate protein degradation in hPBMCs, IKZF3; format: cell-based; conditions: 24 hours of compound treatment, compounds tested at 50 nM and 500 nM (concentration of the table not stated)
T4 construct: endogenous in cells; host or cells: hPBMCs (Milecell Biotechnologies)

CK1α = target: T5, CK1α (Homo sapiens, UniProt P48729+Q96SW2); experiment: Western-blot assay of substrate protein degradation in hPBMCs, CK1α; format: cell-based; conditions: 24 hours of compound treatment, compounds tested at 50 nM and 500 nM (concentration of the table not stated)
T5 construct: endogenous in cells; host or cells: hPBMCs (Milecell Biotechnologies)

GSPT1 = target: T6, GSPT1 (Homo sapiens, UniProt P15170+Q96SW2); experiment: Western-blot assay of substrate protein degradation in hPBMCs, GSPT1; format: cell-based; conditions: 24 hours of compound treatment, compounds tested at 50 nM and 500 nM (concentration of the table not stated)
T6 construct: endogenous in cells; host or cells: hPBMCs (Milecell Biotechnologies)

[1] = target: T7, human Cereblon WT GST-tagged protein (Homo sapiens, UniProt Q96SW2); experiment: CRBN-binding affinity by HTRF (CEREBLON BINDING kit); conditions: HTRF inhibitory activity, CEREBLON BINDING kit; read-out: HTRF IC50
T7 construct: purchased CISBIO 64BDCRBNPEH

SR = experiment: Tumor cell proliferation inhibition (CellTiter-Meiluncell Luminescent Cell Viability Assay), SR; conditions: Homo sapiens, 96 h, read-out: inhibitory activity (IC50, nM) against tumor cells proliferation, SR
Vcap = experiment: Tumor cell proliferation inhibition (CellTiter-Meiluncell Luminescent Cell Viability Assay), Vcap; conditions: Homo sapiens, 96 h, read-out: inhibitory activity (IC50, nM) against tumor cells proliferation, Vcap
MM.1R = experiment: Tumor cell proliferation inhibition (CellTiter-Meiluncell Luminescent Cell Viability Assay), MM.1R; conditions: Homo sapiens, 96 h, read-out: inhibitory activity (IC50, nM) against tumor cells proliferation, MM.1R
SW620 = experiment: Tumor cell proliferation inhibition (CellTiter-Meiluncell Luminescent Cell Viability Assay), SW620; conditions: Homo sapiens, SW-620, 96 h, read-out: inhibitory activity (IC50, nM) against tumor cells proliferation, SW620
Jurkat = experiment: Tumor cell proliferation inhibition (CellTiter-Meiluncell Luminescent Cell Viability Assay), Jurkat; conditions: Homo sapiens, 96 h, read-out: inhibitory activity (IC50, nM) against tumor cells proliferation, Jurkat
CAL-62 = experiment: Tumor cell proliferation inhibition (CellTiter-Meiluncell Luminescent Cell Viability Assay), CAL-62; conditions: Homo sapiens, CAL-62, 96 h, read-out: inhibitory activity (IC50, nM) against tumor cells proliferation, CAL-62
[2] = tested on: Human acute T lymphocytic leukemia cells (Molt-4); experiment: Tumor cell proliferation inhibition (CellTiter-Meiluncell Luminescent Cell Viability Assay), Molt-4; conditions: MOLT-4, 96 h, read-out: inhibitory activity (IC50, nM) against tumor cells proliferation, Molt 4
Experimental: (§1) The tumor cells used herein were cultured in a cell culture medium listed in table 2 at 37°C in an incubator with 5% CO2. Prior to experimentation, all cell lines used were correctly identified by STR profiling, and tested negative for mycoplasma contamination using a mycoplasma detection kit through routine screenings.
On the following day, the test compounds of the present disclosure were subjected to serial dilution. […] Subsequently, 0.5 µL of the test compound dilution was transferred into the 96-well plate containing the cells, with each well containing 100 µL of cell culture medium. […] Into the 96-well plate, the diluted test compounds and corresponding detection reagents were added, resulting in final test compound concentrations of 500 nM and 10 nM, respectively. The experimental procedure is described below using the diluted 2 µM test compound as an example.
(§2) After the cells were treated with the compounds of the present disclosure for a specified period (the treatment durations were shown in Table 3), the cell viability assay reagent was added to the culture medium according to the kit's instructions to determine cell viability. […] All controls were treated using the same procedure as the compounds of the present disclosure. The growth inhibition curves for the compounds of the present disclosure were plotted using Prism GraphPad software, and the IC50 values were calculated therefrom.

MGC803 = experiment: Tumor cell proliferation inhibition (CellTiter-Meiluncell Luminescent Cell Viability Assay), MGC803; conditions: Homo sapiens, MGC-803, 96 h, read-out: inhibitory activity (IC50, nM) against tumor cells proliferation, MGC803
Experimental: as §1
On the following day, the test compounds of the present disclosure were subjected to serial dilution. […] Subsequently, 0.5 µL of the test compound dilution was transferred into the 96-well plate containing the cells, with each well containing 100 µL of cell culture medium. […] Into the 96-well plate, the diluted test compounds and corresponding detection reagents were added, resulting in final test compound concentrations of 500 nM and 10 nM, respectively.
as §2

CCRF-CEM = experiment: Tumor cell proliferation inhibition (CellTiter-Meiluncell Luminescent Cell Viability Assay), CCRF-CEM; conditions: Homo sapiens, 96 h, read-out: inhibitory activity (IC50, nM) against tumor cells proliferation, CCRF-CEM
NCI-H1975 = experiment: Tumor cell proliferation inhibition (CellTiter-Meiluncell Luminescent Cell Viability Assay), NCI-H1975; conditions: Homo sapiens, NCI-H1975, 96 h, read-out: inhibitory activity (IC50, nM) against tumor cells proliferation, H1975
[3] = tested on: Human breast cancer cells (MDA-MB-231); experiment: Tumor cell proliferation inhibition (CellTiter-Meiluncell Luminescent Cell Viability Assay), MDA-MB-231; conditions: MDA-MB-231, 96 h, read-out: inhibitory activity (IC50, nM) against tumor cells proliferation, MDA-MB-231

T2 sequence (Q13422 whole entry): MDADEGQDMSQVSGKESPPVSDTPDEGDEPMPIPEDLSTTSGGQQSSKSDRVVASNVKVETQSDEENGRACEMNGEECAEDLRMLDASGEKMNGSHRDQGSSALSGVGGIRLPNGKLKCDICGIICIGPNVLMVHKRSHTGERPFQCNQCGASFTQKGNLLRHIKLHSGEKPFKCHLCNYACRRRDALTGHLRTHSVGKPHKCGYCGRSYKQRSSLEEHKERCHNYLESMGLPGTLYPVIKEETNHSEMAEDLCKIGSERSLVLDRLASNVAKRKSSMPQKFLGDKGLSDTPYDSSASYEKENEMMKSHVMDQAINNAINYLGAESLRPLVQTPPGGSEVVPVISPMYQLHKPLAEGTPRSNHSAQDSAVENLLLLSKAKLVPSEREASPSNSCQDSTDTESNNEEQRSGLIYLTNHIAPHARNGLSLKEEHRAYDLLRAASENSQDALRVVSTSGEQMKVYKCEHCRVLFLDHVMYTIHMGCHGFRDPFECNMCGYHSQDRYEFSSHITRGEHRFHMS
T2 sequence (Q96SW2 whole entry): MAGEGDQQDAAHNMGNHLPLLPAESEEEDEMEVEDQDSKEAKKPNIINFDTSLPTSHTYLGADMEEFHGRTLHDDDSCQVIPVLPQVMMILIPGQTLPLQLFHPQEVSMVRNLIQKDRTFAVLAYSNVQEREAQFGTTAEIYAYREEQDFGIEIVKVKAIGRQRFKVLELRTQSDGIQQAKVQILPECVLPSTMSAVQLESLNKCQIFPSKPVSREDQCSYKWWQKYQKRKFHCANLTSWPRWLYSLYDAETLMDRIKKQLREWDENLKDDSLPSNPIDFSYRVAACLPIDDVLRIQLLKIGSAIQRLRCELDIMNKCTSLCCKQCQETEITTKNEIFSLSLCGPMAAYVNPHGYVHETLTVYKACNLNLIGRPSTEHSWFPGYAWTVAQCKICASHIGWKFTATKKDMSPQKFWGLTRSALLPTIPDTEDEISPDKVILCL
T2 sequence (Q16531 whole entry partner): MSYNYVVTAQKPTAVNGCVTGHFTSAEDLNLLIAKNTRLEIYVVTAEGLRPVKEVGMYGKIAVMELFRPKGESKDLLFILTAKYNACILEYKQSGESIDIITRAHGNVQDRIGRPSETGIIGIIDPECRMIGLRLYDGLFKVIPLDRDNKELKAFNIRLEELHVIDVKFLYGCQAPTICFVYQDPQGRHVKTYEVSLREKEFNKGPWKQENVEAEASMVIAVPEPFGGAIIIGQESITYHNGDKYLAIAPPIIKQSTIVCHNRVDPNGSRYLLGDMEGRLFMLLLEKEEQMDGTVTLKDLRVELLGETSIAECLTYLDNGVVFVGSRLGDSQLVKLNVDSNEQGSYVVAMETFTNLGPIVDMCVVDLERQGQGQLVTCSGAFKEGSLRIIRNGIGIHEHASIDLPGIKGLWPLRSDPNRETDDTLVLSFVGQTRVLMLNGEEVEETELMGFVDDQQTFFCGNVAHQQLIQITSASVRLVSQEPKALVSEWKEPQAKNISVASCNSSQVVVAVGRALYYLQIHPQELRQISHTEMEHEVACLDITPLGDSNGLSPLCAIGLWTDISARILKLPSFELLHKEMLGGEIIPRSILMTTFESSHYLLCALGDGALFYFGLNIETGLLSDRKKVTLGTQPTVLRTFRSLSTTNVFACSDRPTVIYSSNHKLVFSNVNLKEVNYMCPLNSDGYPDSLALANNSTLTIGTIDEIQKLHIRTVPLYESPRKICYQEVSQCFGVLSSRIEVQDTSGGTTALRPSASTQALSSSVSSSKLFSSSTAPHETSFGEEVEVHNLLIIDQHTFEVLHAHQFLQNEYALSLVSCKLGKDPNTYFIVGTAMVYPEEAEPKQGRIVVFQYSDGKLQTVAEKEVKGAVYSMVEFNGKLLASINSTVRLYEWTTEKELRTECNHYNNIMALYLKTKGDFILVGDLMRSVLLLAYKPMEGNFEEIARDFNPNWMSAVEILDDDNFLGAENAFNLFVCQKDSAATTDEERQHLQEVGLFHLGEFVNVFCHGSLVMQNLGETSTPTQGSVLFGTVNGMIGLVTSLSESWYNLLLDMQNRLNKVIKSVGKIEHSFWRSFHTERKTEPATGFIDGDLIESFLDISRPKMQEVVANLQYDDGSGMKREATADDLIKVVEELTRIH
T3 sequence (Q9UKS7 whole entry): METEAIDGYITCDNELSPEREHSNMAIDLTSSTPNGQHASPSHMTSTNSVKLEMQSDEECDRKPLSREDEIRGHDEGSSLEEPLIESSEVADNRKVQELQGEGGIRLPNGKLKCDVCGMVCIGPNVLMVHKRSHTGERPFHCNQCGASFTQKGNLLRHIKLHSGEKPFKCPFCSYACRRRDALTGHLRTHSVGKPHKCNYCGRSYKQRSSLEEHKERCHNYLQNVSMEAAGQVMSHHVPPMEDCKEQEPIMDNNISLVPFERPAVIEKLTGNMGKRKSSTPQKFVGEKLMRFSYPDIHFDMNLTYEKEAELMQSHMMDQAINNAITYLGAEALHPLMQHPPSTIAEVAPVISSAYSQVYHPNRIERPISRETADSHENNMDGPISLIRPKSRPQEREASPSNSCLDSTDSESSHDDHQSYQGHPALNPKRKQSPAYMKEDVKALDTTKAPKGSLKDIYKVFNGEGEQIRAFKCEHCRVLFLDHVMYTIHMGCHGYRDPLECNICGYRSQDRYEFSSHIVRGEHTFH
T3 sequence (Q96SW2 whole entry): as the sequence (Q96SW2 whole entry) above
T3 sequence (Q16531 whole entry partner): as the sequence (Q16531 whole entry partner) above
T6 sequence (P15170 whole entry): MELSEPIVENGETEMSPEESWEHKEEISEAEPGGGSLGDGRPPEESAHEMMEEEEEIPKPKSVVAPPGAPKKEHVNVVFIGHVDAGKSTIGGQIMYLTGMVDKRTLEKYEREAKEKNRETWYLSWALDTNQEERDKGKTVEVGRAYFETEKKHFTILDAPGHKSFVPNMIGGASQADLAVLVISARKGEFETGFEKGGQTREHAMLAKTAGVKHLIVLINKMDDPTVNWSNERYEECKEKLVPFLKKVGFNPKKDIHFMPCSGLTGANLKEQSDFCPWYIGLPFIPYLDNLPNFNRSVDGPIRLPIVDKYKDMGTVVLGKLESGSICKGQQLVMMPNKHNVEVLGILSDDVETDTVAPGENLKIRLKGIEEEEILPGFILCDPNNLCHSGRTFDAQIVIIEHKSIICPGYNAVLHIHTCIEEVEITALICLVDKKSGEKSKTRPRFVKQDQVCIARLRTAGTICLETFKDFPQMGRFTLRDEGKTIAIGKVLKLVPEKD
T6 sequence (Q96SW2 whole entry): as the sequence (Q96SW2 whole entry) above
T6 sequence (Q16531 whole entry partner): as the sequence (Q16531 whole entry partner) above
T7 sequence (Q96SW2 whole entry): as the sequence (Q96SW2 whole entry) above
T4 sequence (Q9UKT9 whole entry): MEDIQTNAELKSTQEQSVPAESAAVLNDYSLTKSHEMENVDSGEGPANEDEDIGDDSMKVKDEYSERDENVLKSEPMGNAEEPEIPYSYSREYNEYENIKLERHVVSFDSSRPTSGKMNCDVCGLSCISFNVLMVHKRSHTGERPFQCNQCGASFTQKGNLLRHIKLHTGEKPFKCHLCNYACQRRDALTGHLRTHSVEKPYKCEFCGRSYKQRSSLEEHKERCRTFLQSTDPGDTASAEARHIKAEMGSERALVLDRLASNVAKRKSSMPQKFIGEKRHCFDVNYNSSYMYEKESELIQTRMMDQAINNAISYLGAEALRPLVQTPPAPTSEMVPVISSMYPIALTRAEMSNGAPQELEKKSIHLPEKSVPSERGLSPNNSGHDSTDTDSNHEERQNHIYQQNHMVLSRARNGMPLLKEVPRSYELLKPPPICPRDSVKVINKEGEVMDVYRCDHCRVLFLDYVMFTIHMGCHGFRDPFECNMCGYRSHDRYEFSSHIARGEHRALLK
T4 sequence (Q96SW2 whole entry): as the sequence (Q96SW2 whole entry) above
T4 sequence (Q16531 whole entry partner): as the sequence (Q16531 whole entry partner) above
T5 sequence (P48729 whole entry): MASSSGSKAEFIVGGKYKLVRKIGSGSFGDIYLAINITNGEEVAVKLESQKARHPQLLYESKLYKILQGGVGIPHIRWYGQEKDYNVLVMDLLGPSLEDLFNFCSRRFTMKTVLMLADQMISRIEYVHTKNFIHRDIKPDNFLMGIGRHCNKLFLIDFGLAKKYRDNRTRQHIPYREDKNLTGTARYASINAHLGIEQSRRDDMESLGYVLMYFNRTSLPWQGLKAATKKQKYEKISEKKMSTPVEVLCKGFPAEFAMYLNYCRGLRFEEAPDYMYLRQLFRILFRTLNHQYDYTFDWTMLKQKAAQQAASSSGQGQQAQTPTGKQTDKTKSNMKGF
T5 sequence (Q96SW2 whole entry): as the sequence (Q96SW2 whole entry) above
T5 sequence (Q16531 whole entry partner): as the sequence (Q16531 whole entry partner) above

IC50 [1] [µM] | IC50 (SR) [nM] | IC50 (Vcap) [nM] | IC50 (MM.1R) [nM] | IC50 (SW620) [nM] | IC50 (Jurkat) [nM] | IC50 (CAL-62) [nM] | IC50 [2] [nM] | IC50 (MGC803) [nM] | IC50 (CCRF-CEM) [nM] | IC50 (NCI-H1975) [nM] | IC50 [3] [nM] | Compound | Weel substrate protein remaining % (WEE1) | IKZF 1 substrate protein remaining % (IKZF1) | IKZF2 substrate protein remaining % (IKZF2) | IKZF3 substrate protein remaining % (IKZF3) | CK1a substrate protein remaining % (CK1α) | GSPT1 substrate protein remaining % (GSPT1)
1 to 1.5 | 500 to 1000 | 50 to 100 | 10 to 50 | 100 to 500 | 5 to 10 | 10 to 50 | 10 to 50 | 100 to 500 | 5 to 10 | 100 to 500 | 100 to 500 | O=C1CCC(N2Cc3cc(CN4CCN(c5ccc(F)cc5)CC4)ccc3C2=O)C(=O)N1 (stereo not drawn) [GT-04453, 3-(5-((4-(4-fluorophenyl)piperazin-1-yl)methyl)-1-oxoisoindolin-2-yl)piperidine-2,6-dione] | A (0% ≤ substrate protein remaining % ≤ 80%) | A (0% ≤ substrate protein remaining % ≤ 80%) | A (0% ≤ substrate protein remaining % ≤ 80%) | A (0% ≤ substrate protein remaining % ≤ 80%) | A (0% ≤ substrate protein remaining % ≤ 80%) | A (0% ≤ substrate protein remaining % ≤ 80%)
0.5 to 1 | 10 to 50 | 5 to 10 | 1 to 5 | 10 to 50 | 1 to 5 | 1 to 5 | 1 to 5 | 10 to 50 | 1 to 5 | 10 to 50 | 10 to 50 | O=C1CCC(N2Cc3cc(CN4CCN(c5cccc(Br)c5)CC4)ccc3C2=O)C(=O)N1 (stereo not drawn) [GT-04467, 3-(5-((4-(3-bromophenyl)piperazin-1-yl)methyl)-1-oxoisoindolin-2-yl)piperidine-2,6-dione] | A (0% ≤ substrate protein remaining % ≤ 80%) | A (0% ≤ substrate protein remaining % ≤ 80%) | A (0% ≤ substrate protein remaining % ≤ 80%) | A (0% ≤ substrate protein remaining % ≤ 80%) | A (0% ≤ substrate protein remaining % ≤ 80%) | A (0% ≤ substrate protein remaining % ≤ 80%)
0.5 to 1 | 50 to 100 | 10 to 50 | 1 to 5 | 10 to 50 | 1 to 5 | 5 to 10 | 1 to 5 | 50 to 100 | 1 to 5 | 10 to 50 | 10 to 50 | O=C1CCC(N2Cc3cc(CN4CCC(c5cccc(Br)c5)CC4)ccc3C2=O)C(=O)N1 (stereo not drawn) [GT-04466, 3-(5-((4-(3-bromophenyl)piperidin-1-yl)methyl)-1-oxoisoindolin-2-yl)piperidine-2,6-dione] | A (0% ≤ substrate protein remaining % ≤ 80%) | A (0% ≤ substrate protein remaining % ≤ 80%) | A (0% ≤ substrate protein remaining % ≤ 80%) | A (0% ≤ substrate protein remaining % ≤ 80%) | A (0% ≤ substrate protein remaining % ≤ 80%) | A (0% ≤ substrate protein remaining % ≤ 80%)
0.5 to 1 | 100 to 500 | 10 to 50 | 10 to 50 | 100 to 500 | 5 to 10 | 10 to 50 | 10 to 50 | 100 to 500 | 10 to 50 | 100 to 500 | 100 to 500 | O=C1CCC(N2Cc3cc(CN4CCN(c5ccccc5Cl)CC4)ccc3C2=O)C(=O)N1 (stereo not drawn) [GT-04454, 3-(5-((4-(2-chlorophenyl)piperazin-1-yl)methyl)-1-oxoisoindolin-2-yl)piperidine-2,6-dione] | A (0% ≤ substrate protein remaining % ≤ 80%) | A (0% ≤ substrate protein remaining % ≤ 80%) | A (0% ≤ substrate protein remaining % ≤ 80%) | A (0% ≤ substrate protein remaining % ≤ 80%) | A (0% ≤ substrate protein remaining % ≤ 80%) | A (0% ≤ substrate protein remaining % ≤ 80%)
0.5 to 1 | 100 to 500 | 10 to 50 | 5 to 10 | 50 to 100 | 1 to 5 | 5 to 10 | 1 to 5 | 100 to 500 | 5 to 10 | 50 to 100 | 100 to 500 | O=C1CCC(N2Cc3cc(CN4CCN(c5ccccc5)CC4)ccc3C2=O)C(=O)N1 (stereo not drawn) [GT-04446, 3-(1-oxo-5-((4-phenylpiperazin-1-yl)methyl)isoindolin-2-yl)piperidine-2,6-dione] | A (0% ≤ substrate protein remaining % ≤ 80%) | A (0% ≤ substrate protein remaining % ≤ 80%) | A (0% ≤ substrate protein remaining % ≤ 80%) | A (0% ≤ substrate protein remaining % ≤ 80%) | A (0% ≤ substrate protein remaining % ≤ 80%) | A (0% ≤ substrate protein remaining % ≤ 80%)
0.5 to 1 | 10 to 50 | 5 to 10 | 1 to 5 | 10 to 50 | 10 to 50 | 10 to 50 | 1 to 5 | 10 to 50 | 1 to 5 | 10 to 50 | 10 to 50 | Cc1cccc(N2CCN(Cc3ccc4c(c3)CN(C3CCC(=O)NC3=O)C4=O)CC2)c1 (stereo not drawn) [GT-04462, 3-(1-oxo-5-((4-(m-tolyl)piperazin-1-yl)methyl)isoindolin-2-yl)piperidine-2,6-dione] | A (0% ≤ substrate protein remaining % ≤ 80%) | A (0% ≤ substrate protein remaining % ≤ 80%) | A (0% ≤ substrate protein remaining % ≤ 80%) | A (0% ≤ substrate protein remaining % ≤ 80%) | A (0% ≤ substrate protein remaining % ≤ 80%) | A (0% ≤ substrate protein remaining % ≤ 80%)

Compound | IC50 [1] [µM] | IC50 (SR) [nM] | IC50 (Vcap) [nM] | IC50 (MM.1R) [nM] | IC50 (SW620) [nM] | IC50 (Jurkat) [nM] | IC50 (CAL-62) [nM] | IC50 [2] [nM] | IC50 (MGC803) [nM] | IC50 (CCRF-CEM) [nM] | IC50 (NCI-H1975) [nM] | IC50 [3] [nM] | Weel substrate protein remaining % (WEE1) | IKZF 1 substrate protein remaining % (IKZF1) | IKZF2 substrate protein remaining % (IKZF2) | IKZF3 substrate protein remaining % (IKZF3) | CK1a substrate protein remaining % (CK1α) | GSPT1 substrate protein remaining % (GSPT1)
Cc1cscc1C1=CCN(Cc2ccc3c(c2)CN(C2CCC(=O)NC2=O)C3=O)CC1 (stereo not drawn) [GT-04503, 3-(5-((4-(4-methylthiophen-3-yl)-3,6-dihydropyridin-1(2H)-yl)methyl)-1-oxoisoindolin-2-yl)piperidine-2,6-dione] | < 0.5 | 1 to 5 | 1 to 5 | 1 to 5 | 1 to 5 | < 1 | < 1 | < 1 | 5 to 10 | < 1 | 1 to 5 | 1 to 5 | A (0% ≤ substrate protein remaining % ≤ 80%) | A (0% ≤ substrate protein remaining % ≤ 80%) | A (0% ≤ substrate protein remaining % ≤ 80%) | A (0% ≤ substrate protein remaining % ≤ 80%) | A (0% ≤ substrate protein remaining % ≤ 80%) | A (0% ≤ substrate protein remaining % ≤ 80%)
